Like-named read-outs stand apart in the source and are kept apart here.
Legend:
[1] = target: T1, human glucocorticoid receptor-α [GRX] isoform (Homo sapiens, UniProt P04150); test: Radioligand binding with human glucocorticoid receptor cytosol ([3H]-dexamethasone competition)
T1 construct: host or cells: insect SF21 cells (baculovirus)
T1 sequence (P04150 1-777): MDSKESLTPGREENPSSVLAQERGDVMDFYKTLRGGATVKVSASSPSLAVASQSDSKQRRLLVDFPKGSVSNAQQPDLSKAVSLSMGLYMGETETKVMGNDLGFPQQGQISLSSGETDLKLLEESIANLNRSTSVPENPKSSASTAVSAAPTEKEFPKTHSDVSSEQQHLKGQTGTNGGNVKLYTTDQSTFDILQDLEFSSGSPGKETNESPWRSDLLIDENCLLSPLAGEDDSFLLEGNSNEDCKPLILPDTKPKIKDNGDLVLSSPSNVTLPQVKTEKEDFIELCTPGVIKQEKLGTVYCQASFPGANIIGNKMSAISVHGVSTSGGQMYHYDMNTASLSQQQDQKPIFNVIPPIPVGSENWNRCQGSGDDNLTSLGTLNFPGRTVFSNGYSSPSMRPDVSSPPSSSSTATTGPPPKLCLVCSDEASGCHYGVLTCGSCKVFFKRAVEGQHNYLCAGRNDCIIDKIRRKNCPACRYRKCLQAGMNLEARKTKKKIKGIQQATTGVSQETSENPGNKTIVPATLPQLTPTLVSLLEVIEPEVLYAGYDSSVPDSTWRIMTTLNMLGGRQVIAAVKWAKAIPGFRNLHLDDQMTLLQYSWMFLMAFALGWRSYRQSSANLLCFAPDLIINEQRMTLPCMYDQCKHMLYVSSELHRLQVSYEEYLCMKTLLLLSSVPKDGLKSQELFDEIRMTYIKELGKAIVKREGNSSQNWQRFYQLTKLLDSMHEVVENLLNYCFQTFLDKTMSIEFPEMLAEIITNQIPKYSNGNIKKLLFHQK

[2] = target: T2, human progesterone receptor-A [PRA] isoform (Homo sapiens, UniProt P06401); test: Radioligand binding with human progesterone receptor cytosol ([3H]-progesterone competition); details: PRA cytosol expressed in insect SF21 cells, [3H]Prog ~0.8 nM, 4° C. overnight; Ki by Cheng-Prusoff, KL ~4.5 nM; read-out: Ki (nM) PR
T2 construct: host or cells: insect SF21 cells (baculovirus)
T2 sequence (P06401 1-769 isoform P06401-2): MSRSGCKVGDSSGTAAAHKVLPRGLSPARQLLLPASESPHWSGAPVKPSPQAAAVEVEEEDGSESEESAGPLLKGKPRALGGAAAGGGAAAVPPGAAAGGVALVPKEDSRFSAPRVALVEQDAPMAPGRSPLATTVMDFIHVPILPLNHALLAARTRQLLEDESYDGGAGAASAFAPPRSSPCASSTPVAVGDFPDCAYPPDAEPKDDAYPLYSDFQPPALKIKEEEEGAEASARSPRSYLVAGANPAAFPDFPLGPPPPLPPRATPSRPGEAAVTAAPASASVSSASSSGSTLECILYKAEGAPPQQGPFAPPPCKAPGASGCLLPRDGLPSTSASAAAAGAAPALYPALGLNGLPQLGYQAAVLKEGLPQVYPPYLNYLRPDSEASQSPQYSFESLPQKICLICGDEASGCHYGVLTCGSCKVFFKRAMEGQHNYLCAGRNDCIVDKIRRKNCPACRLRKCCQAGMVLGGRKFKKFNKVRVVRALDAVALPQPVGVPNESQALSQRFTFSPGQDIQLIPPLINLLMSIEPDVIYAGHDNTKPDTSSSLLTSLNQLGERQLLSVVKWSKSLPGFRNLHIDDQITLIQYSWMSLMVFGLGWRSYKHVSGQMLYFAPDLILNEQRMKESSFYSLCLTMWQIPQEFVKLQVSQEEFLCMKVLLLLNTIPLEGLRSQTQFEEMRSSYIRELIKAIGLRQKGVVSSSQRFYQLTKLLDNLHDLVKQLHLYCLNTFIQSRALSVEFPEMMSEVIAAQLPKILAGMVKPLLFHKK

[3] = GRX cytosol expressed in insect SF21 cells, [3H]-Dex ~0.9 nM, 4° C. overnight, Ki by Cheng-Prusoff, KL ~[…], read-out: Ki (nM) GR

Row | Structure (SMILES) | Ki [1, 3] | Ki [2] | Ki ([1]; Ki (nM) GR)
1 | COC(=O)C1=CC(C2Oc3ccc(O)c(OC)c3-c3ccc4c(c32)C(C)=CC(C)(C)N4)CCC1 (single isomer, unassigned) [Example 288] | 0.86 nM | 4080 nM | –
2 | COc1cccc2c1-c1ccc3c(c1C(c1cccc(C)c1)O2)C(C)=CC(C)(C)N3 (stereo not drawn) [Example 24, 2,5-Dihydro-10-methoxy-2,2,4-trimethyl-5-(3-methylphenyl)-1H-[1]benzopyrano[3,4-f]quinoline] | 3.5 nM | 14800 nM | –
3 | COc1cccc2c1-c1ccc3c(c1C(CCOC(=O)NCc1ccccc1)O2)C(C)=CC(C)(C)N3 (stereo not drawn) [Example 200, 2,5-Dihydro-10-methoxy-5-(2-(N-benzylcarbonyloxy)ethyl)-2,2,4-trimethyl-1H-[1]benzopyrano[3,4-f]quinoline] | 45 nM | ≥ 10000 nM | –
4 | COc1cccc2c1-c1ccc3c(c1C(c1cccc(OCSC)c1)O2)C(C)=CC(C)(C)N3 (stereo not drawn) [Example 14, 2,5-Dihydro-10-methoxy-2,2,4-trimethyl-5-[[3-(methylthio)methoxy]phenyl]-1H-[1]benzopyrano[3,4-f]quinoline] | 5.2 nM | ≥ 10000 nM | –
5 | COc1cccc2c1-c1ccc3c(c1C(CC(O)CO)O2)C(C)=CC(C)(C)N3 (mixture of isomers) [Example 174, 2,5-Dihydro-10-methoxy-5-(1,2-dihydroxy-3-propyl)-2,2,4-trimethyl-1H-[1]benzopyrano[3,4-f]quinoline] | 270 nM | ≥ 10000 nM | –
6 | COc1cccc2c1-c1ccc3c(c1C(c1cccc(NCc4ccccc4)c1)O2)C(C)=CC(C)(C)N3 (stereo not drawn) [Example 119, N-[3-(2,5-Dihydro-10-methoxy-2,2,4-trimethyl-1H-[1]benzopyrano[3,4-f]quinolin-5-yl)phenyl]benzenemethanamine] | 6.9 nM | ≥ 10000 nM | –
7 | CC1=CC(C)(C)Nc2ccc3c(c21)C(c1ccccc1)Oc1cccc(OC(F)(F)Br)c1-3 (stereo not drawn) [Example 346, 10-(Bromodifluoromethoxy)-2,5-dihydro-5-phenyl-2,2,4-trimethyl-1H-[1]benzopyrano[3,4-f]quinoline] | 44 nM | 5110 nM | –
8 | COc1cccc2c1-c1ccc3c(c1C(c1ccccc1)O2)C(C)=NC(C)(C)N3 (stereo not drawn) [Example 358, 2,5-Dihydro-10-methoxy-2,2,4-trimethyl-5-phenyl-1H-[1]benzopyrano[3,4-f]quinazoline] | 4.2 nM | 8960 nM | –
9 | CC1=CC(C)(C)Nc2ccc3c(c21)C(=Cc1ccccn1)Oc1ccc(O)c(Cl)c1-3 [Example 413, 9-Hydroxy-10-chloro-5-([2-pyridyl]methylene)-2,2,4-trimethyl-1H-2,5-dihydro-[1]benzopyrano[3,4-f]quinoline] | 0.22 nM | 60.8 nM | –
10 | COc1cccc2c1-c1ccc3c(c1C(C1C=CC(=O)O1)O2)C(C)=CC(C)(C)N3 (stereo not drawn) [Example 67, 5-(2,5-Dihydro-10-methoxy-2,2,4-trimethyl-1H-[1]benzopyrano[3,4-f]quinolin-5-yl)2(5H)-furanone] | 21.7 nM | ≥ 10000 nM | –
11 | COC(=S)Oc1cccc(C2Oc3cccc(OC)c3-c3ccc4c(c32)C(C)=CC(C)(C)N4)c1 (stereo not drawn) [Example 104, O-[3-(2,5-Dihydro-10-methoxy-2,2,4-trimethyl-1H-[1]benzopyrano[3,4-f]quinolin-5-yl)phenyl]methylcarbonothioate] | 8.9 nM | ≥ 10000 nM | –
12 | C=C(C)CC1Oc2cccc(OC)c2-c2ccc3c(c21)C(C)=CC(C)(C)N3 (stereo not drawn) [Example 171, 2,5-Dihydro-10-methoxy-5-(2-methyl-3-propenyl)-2,2,4-trimethyl-1H-[1]benzopyrano[3,4-f]quinoline] | 3.3 nM | 7430 nM | –
13 | COc1c(O)ccc2c1-c1ccc3c(c1C(CC=C(C)C)O2)C(C)=CC(C)(C)N3 (stereo not drawn) [Example 283, 2,5-Dihydro-9-hydroxy-10-methoxy-2,2,4-trimethyl-5-(3-methyl-2-butenyl)-1H-[1]benzopyrano[3,4-f]quinoline] | 1.1 nM | 60.4 nM | –
14 | C#Cc1cccc2c1-c1ccc3c(c1C(c1ccccc1)O2)C(C)=CC(C)(C)N3 (stereo not drawn) [Example 334, 2,5-Dihydro-10-ethynyl-5-phenyl-2,2,4-trimethyl-1H-[1]benzopyrano[3,4-f]quinoline] | 9.5 nM | ≥ 10000 nM | –
15 | COc1c(O)ccc2c1-c1ccc3c(c1C(c1cccc(C(F)(F)F)c1)O2)C(C)=CC(C)(C)N3 (stereo not drawn) [Example 256, 2,5-Dihydro-9-hydroxy-10-methoxy-2,2,4-trimethyl-5-(3-trifluoromethylphenyl)-1H-[1]benzopyrano[3,4-f]quinoline] | 3.8 nM | 266 nM | –
16 | C=CCC1Oc2c(C)ccc(OC)c2-c2ccc3c(c21)C(C)=CC(C)(C)N3 (stereo not drawn) [Example 305, 10-Methoxy-7-methyl-5-(3-propenyl)-2,2,4-trimethyl-1H-2,5-dihydro-[1]benzopyrano[3,4-f]quinoline] | 2 nM | 6920 nM | –
17 | COc1ccc(C2Oc3ccc(O)c(OC)c3-c3ccc4c(c32)C(C)=CC(C)(C)N4)s1 (stereo not drawn) [Example 268, 2,5-Dihydro-9-hydroxy-10-methoxy-2,2,4-trimethyl-5-(5-methoxy-2-thienyl)-1H-[1]benzopyrano[3,4-f]quinoline] | 0.84 nM | 486 nM | –
18 | COc1c(O)ccc2c1-c1ccc3c(c1C(CC(C)C)O2)C(C)=CC(C)(C)N3 (stereo not drawn) [Example 259, 2,5-Dihydro-9-hydroxy-10-methoxy-2,2,4-trimethyl-5-(2-methylpropyl)-1H-[1]benzopyrano[3,4-f]quinoline] | 1.2 nM | 938 nM | –
19 | C=CCC1Oc2cccc(-c3ccco3)c2-c2ccc3c(c21)C(C)=CC(C)(C)N3 (stereo not drawn) [Example 326, 2,5-Dihydro-10-(2-furanyl)-5-(3-propenyl)-2,2,4-trimethyl-1H-[1]benzopyrano[3,4-f]quinoline] | 228 nM | ≥ 10000 nM | –
20 | COc1cccc2c1-c1ccc3c(c1C(CC=C(F)F)O2)C(C)=CC(C)(C)N3 (stereo not drawn) [Example 193, 2,5-Dihydro-10-methoxy-5-(1,1-difluoro-1-propen-3-yl)-2,2,4-trimethyl-1H-[1]benzopyrano[3,4-f]quinoline] | – | 2180 nM | 2 nM
21 | CCOC(=N)C1Oc2cccc(OC)c2-c2ccc3c(c21)C(C)=CC(C)(C)N3 (stereo not drawn) [Example 61, 2,5-Dihydro-10-methoxy-2,2,4-trimethyl-1H-[1]benzopyrano[3,4-f]quinoline-5-carboximidic Acid Ethyl Ester] | 62 nM | 14400 nM | –
22 | COc1cccc2c1-c1ccc3c(c1C(c1cccc(Oc4ccc([N+](=O)[O-])cc4[N+](=O)[O-])c1)O2)C(C)=CC(C)(C)N3 (stereo not drawn) [Example 91, 5-[3-(2,4-Dinitrophenoxy)phenyl]-2,5-dihydro-10-methoxy-2,2,4-trimethyl-1H-[1]benzopyrano[3,4-f]quinoline] | 17 nM | ≥ 10000 nM | –
23 | C=CCC1Oc2cccc(OC(F)(F)Br)c2-c2ccc3c(c21)C(C)=CC(C)(C)N3 (stereo not drawn) [Example 83, 10-(Bromodifluoromethoxy)-2,5-dihyro-2,2,4-trimethyl-5-(2-propenyl)-1H-[1]benzopyrano[3,4-f]quinoline] | 54.8 nM | 2210 nM | –
24 | COc1cccc2c1-c1ccc3c(c1C(c1ccc(N(C)C)cc1)O2)C(C)=CC(C)(C)N3 (stereo not drawn) [Example 39, 4-(2,5-Dihydro-10-methoxy-2,2,4-trimethyl-1H-[1]benzopyrano[3,4-f]quinolin-5-yl)-N,N-dimethylbenzenamine] | 31 nM | ≥ 10000 nM | –

Reference: patent US6506766B1 (Abbott Laboratories, priority 1998, dated 2003)
